# Measurements from patent US8962558B2, “Methods for reducing GnRH-positive tumor cell proliferation using the GnRH antagonist IN3” (priority 1997, dated 2015).
# Square brackets hold non-standard residues; d marks the D form. Peptide text beside a SMILES is read from it. dPhe(4-Cl) = N[C@H](Cc1ccc(Cl)cc1)C(=O)O; d2Nal = N[C@H](Cc1ccc2ccccc2c1)C(=O)O; dCit = NC(=O)NCCC[C@@H](N)C(=O)O; d3Pal = N[C@H](Cc1cccnc1)C(=O)O
# Legend:
# [1] = test system: Glioblastoma multiforme; experiment: Phase I study with Buserelin (Example 5); format: in vivo, human; conditions: intravenous or intranasal, permanent medication
# Experimental: Patients with non-resectable Glioblastoma multiforme following microsurgical resection and/or after external conventional radiotherapy and/or brachytherapy; or patients with a diffusely, intraaxially growing brain tumor, multifocal tumor spreading or presence of a gliomatosis cerebri, respectively; a tumor volume of more than 65 ml; or a minimal tumor diameter of more than 5 cm, were each treated with the GnRH agonist Buserelin, which was administered intravenously or alternatively by intranasal application as a permanent medication as described by Klijn, J. G. M., et al., 1982, The Lancet, May 19, […].
# [2] = test system: malignant gliomas U-87MG and U-373MG; experiment: In vivo study with tumor-implanted nude mice (Example 4); conditions: daily dosages
# Experimental: An effect of the treatment of tumor-implanted nude mice (Pinski et al., supra) each with one of the GnRH agonists Buserelin, Triptorelin, Goserelin, and Leuprorelin and each with one of the GnRH antagonists Cetrorelix® (SB-75), Antarelix®, Antide®, and Ramorelix® on the growth of malignant gliomas U-87MG and U-373MG was carried out using daily dosages and controls in nude mice using analysis techniques described for the determination of the efficacy of similar peptides in Pinski et al., supra.
# [3] = test system: human glioblastoma cell lines U-87MG or U-373MG, Kaposi sarcoma cell lines KSY-1 or KS-SLK, malignant melanoma cell line MV3 or BLM, medulloblastoma cell line …; experiment: Proliferation assay on cell cultures (Example 3); format: cell-based; conditions: for anti-proliferative effects in tumor cells: cell lines of Example 3 treated with the substance; for anti-proliferative effect compared with Cetrorelix only: given additionally as a second GnRH antagonist
# Experimental: A human cell line, such as the well known human glioblastoma cell lines U-87MG or U-373MG (Pinski et al., supra), or a human cell line such as the well known Kaposi sarcoma cell lines KSY-1 or KS-SLK (Parkash et al., 1996, New England Journal of Medicine, 335, 17, 1261-1269), or a human cell line such as the well known human malignant melanoma cell line MV3 or BLM (Goldbrunner, R. H., et al., 1996, Anticancer Research 16 (6B), 3679-87), or a human medulloblastoma cell line such as the well known cell line Daoy or D283 MED (Stockhammer et al., 1995, J. Neurosurgery, 83, 672-681), or human meningeoma cell cultures (Boyle-Wash, E., et al., 1995, Journal of Endocrinology, 145, 155-161), are cultured as previously described for the above-mentioned cell lines and then treated with a concentration of the GnRH agonist Triptorelin®, GnRH antagonist SB-75 (Cetrorelix®) or GnRH antagonist Ramorelix®. […]
# In another embodiment, the above-mentioned cell lines are treated as described by Emons, G., et al., 1993, supra, and Irmer, G., 1995, supra, with a concentration of the GnRH peptide antagonist Ac-D-Nal(2)-D-4-ClPhe-D-Pal-Ser-1-MePal-D-IsopropylLys-Leu-IsopropylLys-Pro-D-AlaNH2 (also known as Ant 135-25; the Mepal portion is known as 1-Methyl-3-[3′-pyridyl]-alanine), Teverelix (also known as Antarelix®), Cetrorelix (also known as Cetrotide®), Abarelix (also known as Plenaxis®), D-63153 (also known as Ozarelix®), acyline, azaline B, antide (also known as Iturelix®), Degarelix (FE200486), Ganirelix, Nal-Glu, Orntide (also known as Ornirelix®), Elagolix, or with antagonist peptidomimetic ((2S)-2-[5-[2-(2-azabicyclo[2,2,2]oct-2-yl)-1,1-dimethyl-2-oxoethyl]-2-(3,5-dimethylphenyl)-1H-indol-3-yl]-N-(2-pyridin-4-ylethyl-)propan-1-amine (also known as “IN3”).
# In another embodiment, the cell lines used above were each additionally treated with a second GnRH antagonist, namely one of the GnRH antagonists Cetrorelix®, Ant 135-25, IN3, degarelix, Antarelix®, Antide®, and Ramorelix® or alternatively with one of the GnRH antagonists that have been disclosed in U.S. Pat. Nos. 6,939,88, 6,200,957, 5,296,468, 4,851,385, 7,361,633, 7,288,517, WO/2009/106597 or PCT/EP2009/052326, U.S. Pat. Nos. 5,480,969, 5,198,533, or UK Patent GB 2 246782 B, wherein these additional treatment procedures were carried out in a manner similar to those reported in Emons et al., supra, using SB 75 (Cetrorelix®). […]
# [4] = test system: small cell lung carcinoma cell lines NCI-H1688, NCI-H1417, NCI-H1672, NCI-H1836, DMS-79, DM-553, DMS-114, SW-1271, NCI-H2227, NCI-HI1963, SHP-77 and H-69 AR; experiment: Proliferation assay on small cell lung carcinoma cell lines (Example 3); format: cell-based, human; conditions: small cell lung carcinoma cell lines treated with the substance
# Experimental: In another embodiment, the small cell lung carcinoma cell lines NCI-H1688, NCI-H1417, NCI-H1672, NCI-H1836, DMS-79, DM-553, DMS-114, SW-1271, NCI-H2227, NCI-HI1963 and SHP-77 in addition to the multidrug-resistant small cell lung carcinoma cell line H-69 AR, are cultured as described above and then treated as described by Emons, G., et al., 1993, supra, and Irmer, G., 1995, supra, with various concentrations of the GnRH agonists (D-Lys6)-GnRH, Lutrelin, Histrelin, Nafarelin, Azagly-Nafarelin, Deslorelin, Cystorelin, Decapeptyl, Gonadorelin, GnRH, D-Lys(6)-GnRH II, Lamprey GnRH II, (D-Lys6)-Lamprey GnRH, (D-Lys6)-Lamprey GnRH II and Lamprey GnRH III.
# In another embodiment, the small cell lung carcinoma cell lines NCI-H1688, NCI-H1417, NCI-H1672, NCI-H1836, DMS-79, DM-553, DMS-114, SW-1271, NCI-H2227, NCI-HI1963 and SHP-77 in addition to the multidrug-resistant small cell lung carcinoma cell line H-69 AR, are cultured as described above for the above-mentioned cell lines, and then treated as described by Emons, G., et al., 1993, supra, and Irmer, G., 1995, supra, with a concentration of the GnRH antagonist Cetrorelix (also known as Cetrotide®) or with a GnRH peptide antagonist Ac-D-Nal(2)-D-4-ClPhe-D-Pal-Ser-1-MePal-D-IsopropylLys-Leu-IsopropylLys-Pro-D-AlaNH2 wherein Mepal is 1-Methyl-3-[3′-pyridyl]-alanine or Ant 135-25 (also known as Ac-D-Nal(2)-D-4-Cl-Phe-D-Pal-Ser-1-MePal-D-IsopropylLys-Leu-IsopropylLys-Pro-D-AlaNH2), Teverelix (also known as Antarelix®), Cetrorelix (also known as Cetrotide®), Abarelix (also known as Plenaxis®), D-63153 (also known as Ozarelix®), acyline, azaline B, antide (also known as Iturelix®), Degarelix (FE200486), Ganirelix, Nal-Glu, Orntide (also known as Ornirelix®) or with antagonist peptidomimetic ((2S)-2-[5-[2-(2-azabicyclo[2,2,2]oct-2-yl)-1,1-dimethyl-2-oxoethyl]-2-(3,5-dimethylphenyl)-1H-indol-3-yl]-N-(2-pyridin-4-ylethyl-)propan-1-amine (also known as “IN3”).
# [5] = test system: U-87MG cells; format: cell-based, human
# Experimental: U-87MG cells were plated at a density of 1400 cells/cm^2 in […] in standard culture medium. Cells were allowed to attach and start growing for 3 days; the seeding media were then changed to experimental media. Cells were treated for 7 days with ZOLADEX® (10^−10-10^−6 M); medium was changed every two days. Following treatment, cells were collected and counted by hemocytometer. Data obtained from three independent experiments were analyzed according to the Dunnett's test after one-way ANOVA.
# [6] = test system: human melanoma cell line MV3; experiment: Proliferation assay using the human malignant melanoma cell line MV3; format: cell-based
# Experimental: The human melanoma cell line MV3 was cultured (in long-term culture in RPMI medium (Gibco Co.) with 1% Penstrep and 10% of heat-inactivated fetal calf serum). The proliferation assay was carried out with 6×10^2 cells per well in 96 well plates. First, the cells were removed from the culture flask with a […] and then washed in standard PBS solution. Following centrifugation for 10 minutes (1200 g) the supernatant was discarded and the pellet resuspended in 1 ml medium. An aliquot of 20 μl of the cells was diluted with trypan blue to obtain an 1:20 dilution. Trypan blue stains the necrotic cells. Then counting was performed in a Neubauer counting chamber. Evaluation was performed by daily determination of 4 values starting at day 0 and multiplying the mean values of the cell counts×10^4× dilution factor 20 to obtain the cell count. During the 5 days, the measurement was performed 4× daily in a Biomec spectrophotometer.
# The method for determination of tumor cell proliferation is described in Lü, H. Q., et al., 1996, Journal of Cancer Research and Clinical Oncology, 122, 335-342.
# The cell line was treated with (Gly-OH10)-LHRH, the LHRH hormone (FIG. 3) (Sigma Chemical Co., No. L8008) or Triptorelin, an LHRH agonist (FIG. 2) (Sigma Chemical Co., No. L9761) or Antide®, a LHRH antagonist (FIG. 1) (Sigma Chemical Co., No. A8802).
# Using concentrations of 10^−4 M, 10^−5 M, and 10^−6 M, with the medium serving as a negative control from day 4 on, the following results were obtained: […]
Compound,growth of malignant gliomas [2],anti-proliferative effects in tumor cells [3],anti-proliferative effects in tumor cells [4],anti-proliferative effect compared with Cetrorelix only [3],other results
CCNC(=O)[C@@H]1CCCN1C(=O)[C@H](CCCNC(=N)N)NC(=O)[C@H](CC(C)C)NC(=O)[C@@H](COC(C)(C)C)NC(=O)[C@H](Cc1ccc(O)cc1)NC(=O)[C@H](CO)NC(=O)[C@H](Cc1c[nH]c2ccccc12)NC(=O)[C@H](Cc1cnc[nH]1)NC(=O)[C@@H]1CCC(=O)N1 [Buserelin],Significant growth-inhibiting effects,Significant anti-proliferative effects,,,recidivation-free survival [1]: longer than that described following Tamoxifen treatment of glioma
CC(=O)N[C@H](Cc1ccc2ccccc2c1)C(=O)N[C@H](Cc1ccc(Cl)cc1)C(=O)N[C@H](Cc1cccnc1)C(=O)N[C@@H](CO)C(=O)N[C@@H](Cc1ccc(O)cc1)C(=O)N[C@H](CCCNC(N)=O)C(=O)N[C@@H](CC(C)C)C(=O)N[C@@H](CCCNC(=N)N)C(=O)N1CCC[C@H]1C(=O)N[C@H](C)C(N)=O [Cetrorelix®] (Ac-[d2Nal][dPhe(4-Cl)][d3Pal]SY[dCit]LRP[dA]-NH2),Significant growth-inhibiting effects,Significant anti-proliferative effects,Significant anti-proliferative effects,significantly stronger anti-proliferative effect,inhibition of proliferation compared to controls ([5]; 10^−5 M): 30%; decrease of proliferation ([5]; 10^−6 M): 28%
CCNC(=O)[C@@H]1CCCN1C(=O)[C@H](CCCNC(=N)N)NC(=O)[C@H](CC(C)C)NC(=O)[C@@H](CC(C)C)NC(=O)[C@H](Cc1ccc(O)cc1)NC(=O)[C@H](CO)NC(=O)[C@H](Cc1c[nH]c2ccccc12)NC(=O)[C@H](Cc1c[nH]cn1)NC(=O)[C@@H]1CCC(=O)N1 [LEUPRORELIN®],Significant growth-inhibiting effects,Significant anti-proliferative effects,,,
"(Gly-OH10)-LHRH (QHWSYGLRPG; Gonadoliberin-1 C-terminal free acid; UniProt P01148 24-33, looked up) [LHRH hormone, the LHRH hormone (Sigma Chemical Co., No. L8008)]",,,,,function of the LHRH hormone on MV3 growth in vitro [6]: positive growth factor
Ac-D-Nal(2)-D-4-ClPhe-D-Pal-Ser-1-MePal-D-IsopropylLys-Leu-IsopropylLys-Pro-D-AlaNH2 [Ant 135-25],,Significant anti-proliferative effects,Significant anti-proliferative effects,significantly stronger anti-proliferative effect,
Antarelix®,Significant growth-inhibiting effects,Significant anti-proliferative effects,Significant anti-proliferative effects,significantly stronger anti-proliferative effect,
Antide®,Significant growth-inhibiting effects,Significant anti-proliferative effects,Significant anti-proliferative effects,significantly stronger anti-proliferative effect,"inhibition of proliferation ([6]; 10^−4 M, from day 4 on): 15%; inhibition of proliferation ([6]; 10^−5 M, from day 4 on): 35%; inhibition of proliferation ([6]; 10^−6 M): no inhibition; stimulation of the growth ([6]; 10^−6 M): 40%"
Nal-Glu,,Significant anti-proliferative effects,Significant anti-proliferative effects,,
